What was measured:
Assay type in all cases: in vivo, mouse
human A53T-α-synuclein = test: Subcellular localization of α-synuclein in cortical tissue homogenates of A53T mice (serial fractionation, ELISA); details: cortex, 8 months of age
[1] = test system: protein aggregates (ubiquitin, α-synuclein and/or protein tau); test: Protein aggregation in brains of post-symptomatic Gba1^D409V/D409V mice (Example 33); details: administration initiated after symptoms of cognitive impairment, approximately 6 months of age
Protocol: Wild-type (WT) and Gba1^D409V/D409V mice are bred and treated substantially as described in Example 27, except that drug administration is initiated when animals are symptomatic for cognitive impairment, e.g. at approximately 6 months of age.
The accumulation of proteins (ubiquitin, α-synuclein and protein tau) is determined by hippocampal quantification and protein immunoreactivity substantially as described in Example 27.

[2] = Tissue distribution of Compound 1 in brain and liver after oral administration in food; details: Gba1^D409V/D409V mice
Protocol: Gba1^D409V/D409V mice (harboring a point mutation at residue 409 in the murine Gba1 gene) were bred under a protocol approved by the Institutional Animal Care and Use Committee. Treatments were administered as described and the animals were humanely sacrificed at pre-determined time points or upon reaching a humane endpoint.
A subset of Gba1^D409V/D409V mice received Compound 1 administered in food using a formulation calculated to provide 60 mg/kg/day. Drug administration was initiated when pups were weaned at 4 weeks of age and continued until euthanasia at 4 or 10 months of age. The concentration of Compound 1 in brain and liver tissues was determined by mass spectrometry (see e.g. Ramanathan et al. “The emergence of high-resolution MS as the premier analytical tool in the pharmaceutical bioanalysis arena” Bioanalysis. March 2012; 4(5):467-469).

Gba1^D409V/D409V mice [3] = test: Novel object recognition (NOR) test in Gba1^D409V/D409V mice; details: 60 mg/kg/day in food from 4 weeks of age, tested at 3 months; FIG. 1
Protocol: (§1) Gba1^D409V/D409V mice were bred and treated according to Example 24.
(§2) Mice were fed the control diet or the Compound 1 diet as described in Example 24.
In the NOR test, […] wild type (WT) and Gba1^D409V/D409V mice were dosed with Compound 1 starting at 4 weeks of age and were subjected to the NOR test at 3 months (2 months post-treatment).
Mice were individually habituated to explore an open-field box for 5 minutes. During the first training session (T1), two identical objects were symmetrically placed into the open field 14 inches from each other. Animals were allowed to explore for 5 minutes. The number of investigations was recorded by a blinded investigator. After a 24 hour retention period, animals were tested (T2) for their recognition of a novel object. Mice were placed back into the open-field box for 5 minutes, and the time spent investigating the familiar and novel objects was recorded.
Statistical analyses were performed by Student's t-test or analysis of variance (ANOVA) followed by Newman-Keuls' post-hoc test. Preference for novelty was defined as investigating the novel object more than 50% of the time by a one-sample t-test. All statistical analyses were performed with GraphPad Prism v4.0 (GraphPad Software, San Diego, Calif.). Values of p<0.05 were considered significant.

[4] = test system: mice overexpressing A53T α-synuclein; test: Fear conditioning (FC) tests in A53T mice; details: eight months of age
Gba1^D409V/D409V mice [5] = test: Fear conditioning (FC) tests in Gba1^D409V/D409V mice; details: ten month-old mice, 60 mg/kg/day in food
Source text: as §1, §2
Ten month-old wild type (WT) and Gba1^D409V/D409V mice were subjected to FC memory tests. For the FC tests, mice were trained in four of the Med Associates® Near Infrared Fear Conditioning System chambers (St. Albans, Vt.). Mice were placed in the contextual fear chamber in “Context A,” which consists of lighting, a neutral background and a stainless steel grid floor. The mice were trained with a 3-trial delay-cued protocol as defined below. The mice were first given 2 minutes to explore the chamber in Context A before a conditioned stimulus (CS) of a 2000 Hz cue was given. Thirty seconds later a one second unconditioned stimulus (US) of 0.6 mA foot shock was applied. With an inter-trial interval (ITI) of 30 sec, this US-CS response was repeated three times. After a 24 hour retention period, mice were brought back to the testing room and habituated to the room for 1 hour. The mice were again placed in Context A for 5 minutes and freezing to the context was recorded. Freezing (defined as the lack of movement, except for respiration) was recorded using a near-infrared camera system. […] Again, freezing to the novel environment and the cue were assessed with the near infrared camera system. […]

[6] = test system: symptomatic Gba1^D409V/D409V mice; test: NOR test in post-symptomatic Gba1^D409V/D409V mice; details: treatment from approximately 6 months of age, tested at 12 months, n=13, p<0.05; FIG. 16
Protocol: Gba1^D409V/D409V mice were bred and treated according to Example 24. Mice were fed the control diet or the Compound 1 diet as described in Example 24, except that drug administration was initiated when animals were approximately 6 months of age, and continued until euthanasia at 13 months of age.
Hippocampal memory was evaluated with the NOR test according to Example 25, except that the mice were tested at 6 months of age (before treatment) and again 6 months later, at 12 months of age (after treatment).

[7] = test system: mice overexpressing A53T α-synuclein; test: Novel object recognition (NOR) test in A53T mice; details: A53T mice dosed from 6 weeks of age, tested at 4.5 months; FIG. 3
protein tau aggregates = test: Hippocampal quantification of protein tau aggregates in A53T mice; details: 8 months of age, FIG. 14
Protocol: For histological analysis, mice were perfused with cold PBS. Brains were removed and post-fixed in 10% (v/v) neutral buffered formalin for 48 hours. Tissues were then placed in 30% sucrose, embedded and sectioned at 20 μm in a cryostat. Some tissues were pretreated with proteinase K (1:4 dilution; DAKO, Carpinteria, Calif.) for 7 minutes at room temperature to expose α-synuclein and other aggregated proteins. […] For α-synuclein aggregate quantification, a cyanine 3-tyramide signal amplification kit was used (PerkinElmer, Waltham, Mass.). […]
For morphometric analysis, sections were imaged with a SPOT camera (Diagnostic Instruments, Sterling Heights, Mich.) paired with a Nikon Eclipse E800 fluorescence microscope equipped with a 20λ objective lens. […] For ubiquitin and tau quantification, the same threshold was used for all images such that the aggregates were positively counted and the threshold area was recorded for each image in pixels. For α-synuclein quantification, each image was analyzed individually using a range of threshold values to quantify the area of the aggregates accurately and eliminate variable background signals. […] The percent threshold area was calculated and expressed as mean±SEM. […]

[8] = test system: protein aggregates (ubiquitin, α-synuclein and/or protein tau); test: Protein aggregation in brains of Gba1^D409V/D409V mice with Compound 2 (Example 35); details: diet containing Compound 2
Protocol: Wild-type (WT) and Gba1^D409V/D409V mice are fed the control diet or a diet containing a quinuclidine compound substantially as described in Example 27, except that the compound administered is Compound 2.
The accumulation of proteins (ubiquitin, α-synuclein and protein tau) is determined by hippocampal quantification and protein immuoreactivity as described in Example 27.

Gba1^D409V/D409V mice [9] = test: NOR and FC tests in Gba1^D409V/D409V mice with Compound 2 (Example 34); details: diet containing Compound 2
Protocol: Gba1^D409V/D409V mice are bred and treated substantially as described in Example 24. Mice are fed a control diet or a diet containing a quinuclidine compound substantially as described in Example 25, except that the compound administered is Compound 2.
The NOR test and the FC test are performed substantially as described in Example 25.

[10] = in food, 60 mg/kg/day, mass spectrometry

Row | Structure (SMILES) | level of insoluble α-synuclein (human A53T-α-synuclein; SDS-soluble fraction, n=14, P<0.01, FIG. 11C) | level of cytosolic soluble α-synuclein (human A53T-α-synuclein; Tris-soluble fraction, n=14, P=0.17, FIG. 11A) | level of membrane-associated α-synuclein (human A53T-α-synuclein; Triton-soluble fraction, n=14, P<0.05, FIG. 11B) | accumulation of protein aggregates (ubiquitin, α-synuclein and/or protein tau) in the brains [1] | concentration in the brain as percentage of the concentration in the liver ([2]; in food, 60 mg/kg/day) | tissue exposure in the cortex [2, 10] [ng/g tissue] | tissue exposure in the liver [2, 10] [ng/g tissue] | blood-brain barrier penetration ([2]; oral in food) | NOR test, target investigations of novel object during testing (T2) (Gba1^D409V/D409V mice [3]) | FC test, contextual memory (freezing responses) ([4]; FIG. 4A) | FC test, cued memory ([4]; FIG. 4B) | FC test, contextual memory (freezing responses) (Gba1^D409V/D409V mice [5]; FIG. 2A) | FC test, cued memory (Gba1^D409V/D409V mice [5]; FIG. 2B) | NOR test, investigation of novel object during testing trial [6] | NOR test, target investigations of novel object during testing (T2) [7] | level of protein tau aggregates in hippocampus (protein tau aggregates) | accumulation of protein aggregates (ubiquitin, α-synuclein and/or protein tau) in the brains [8] | memory deficit (NOR and FC tests) (Gba1^D409V/D409V mice [9])
1 | CC(C)(NC(=O)OC1CN2CCC1CC2)c1cccc(-c2ccc(F)cc2)c1 (stereo not drawn) [Compound 1, 1-azabicyclo[2.2.2]oct-3-yl [2-(4′-fluorobiphenyl-3-yl)propan-2-yl]carbamate] | 81±3 % of the control value | 114±8 % of the control value | 75±8 % of the control value | measurable reduction | approximately 2% | 217±12 | 10512±603 | crosses the blood-brain barrier | trend to reversal of their memory deficit | improved the freezing responses | only a marginal effect | improved the freezing responses | no effect | recovered the ability to investigate the unfamiliar object | trend to reversal of their memory deficit | significant reduction | – | –
2 | CC(C)(NC(=O)O[C@@H]1CN2CCC1CC2)c1csc(-c2ccc(F)cc2)n1 [Compound 2, (S)-quinuclidin-3-yl 2-(2-(4-fluorophenyl)thiazol-4-yl)propan-2-ylcarbamate] | – | – | – | – | – | – | – | – | – | – | – | – | – | – | – | – | measurable reduction | improve memory deficit
